# Laboratory results: patent US11925608B2 (YS PHARMTECH, priority 2017, dated 2024)
# Where two headings read alike, the source gives them in different places.
# What was measured:
# [1] = aqueous solution, cited from earlier work
# [2] = Stability of epinephrine formulations after 1 month storage at 50° C. (HPLC potency, degradants, pH, appearance, O.D.); format: physicochemical
# Description: Selected samples were also tested for drug chirality. The potency and chirality of drug were analyzed using HPLC methods. The degree of coloration was visually inspected and analytically measured their optical densities using a UV/VIS spectrophotometer at the maximum absorption wavelength (λmax) at 485 nm.
# [3] = 1:10 cysteine-to-drug complex and commercial formulation
# [4] = non-complex, acetylcysteine levels
# [5] = non-complex, mixed antioxidants
# [6] = non-complex, thioglycerol levels
# [7] = pediatric formulations (1:2000)
Structure (SMILES),association constant (K) of the inclusion complex with SBEβCD ([1]; pH 3.5),association constant (K) of the inclusion complex with SBEβCD ([1]; pH 5.5),Appearance ([2]; 1:1 cysteine-to-drug),O.D. (Absorbance at λmax = 485 nm) ([2]; 1:1 cysteine-to-drug),"Appearance [2, 3]","O.D. (Absorbance at λmax = 485 nm) [2, 3]",Appearance ([2]; 2:1 cysteine-to-drug),O.D. (Absorbance at λmax = 485 nm) ([2]; 2:1 cysteine-to-drug),Appearance ([2]; 5:1 cysteine-to-drug),O.D. (Absorbance at λmax = 485 nm) ([2]; 5:1 cysteine-to-drug),"Appearance [2, 4]","O.D. (Absorbance at λmax = 485 nm) [2, 4]","Appearance ([2]; non-complex, cysteine levels)","O.D. (Absorbance at λmax = 485 nm) ([2]; non-complex, cysteine levels)","Appearance [2, 5]","O.D. (Absorbance at λmax = 485 nm) [2, 5]","Appearance [2, 6]","O.D. (Absorbance at λmax = 485 nm) [2, 6]","Appearance [2, 7]","O.D. (Absorbance at λmax = 485 nm) [2, 7]"
"CNCC(O)c1ccc(O)c(O)c1 (single isomer, unassigned; (-)) [epinephrine, (−)-3,4-Dihydroxy-α-[(methylamino)methyl]benzyl alcohol]",488 M⁻¹,111 M⁻¹,,,,,,,,,,,,,,,,,,
II [0.0005N Iodine],,,Slightly brownish,0.1206,Slightly brownish,0.1354,Slightly brownish,0.1206,Slightly brownish,0.1290,Slightly brownish,0.1354,Slightly brownish,0.1354,Slightly brownish,0.1354,Slightly brownish,0.1354,Slightly brownish,0.1354
